According to PubChem BioAssay (NCI):
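Growth conditions: 96-well plates. Treatment: test compound, 48 hours, 5 concentrations. Analysis: linear interpolation between bracketing concentrations; unreached endpoints set to highest concentration. GI50: concentration for 50% inhibition of growth. The concentration for full growth arrest is given as TGI.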

What was measured:
Assay in all cases: DTP human tumour cell line panel, 48 h
A498 renal = system: A498 renal
A549 NSCLC = system: A549 NSCLC
ACHN renal = system: ACHN renal
BT-549 breast = system: BT-549 breast
CCRF-CEM leukemia = system: CCRF-CEM leukemia
COLO 205 colon = system: COLO 205 colon
HCC-2998 colon = system: HCC-2998 colon
HCT-116 colon = system: HCT-116 colon
HCT-15 colon = system: HCT-15 colon
HL-60(TB) leukemia = system: HL-60(TB) leukemia
HOP-62 NSCLC = system: HOP-62 NSCLC
HS 578T breast = system: HS 578T breast
IGROV1 ovarian = system: IGROV1 ovarian
KM12 colon = system: KM12 colon
LOX IMVI melanoma = system: LOX IMVI melanoma
M14 melanoma = system: M14 melanoma
MCF7 breast = system: MCF7 breast
MDA-MB-231 breast = system: MDA-MB-231 breast
MDA-MB-435 = system: MDA-MB-435
MOLT-4 leukemia = system: MOLT-4 leukemia
NCI-H226 lung = system: NCI-H226 lung
NCI-H23 lung = system: NCI-H23 lung
NCI-H522 lung = system: NCI-H522 lung
NCI/ADR-RES ovarian = system: NCI/ADR-RES ovarian
OVCAR-3 ovarian = system: OVCAR-3 ovarian
OVCAR-4 ovarian = system: OVCAR-4 ovarian
OVCAR-5 ovarian = system: OVCAR-5 ovarian
OVCAR-8 ovarian = system: OVCAR-8 ovarian
PC-3 prostate = system: PC-3 prostate
RPMI-8226 leukemia = system: RPMI-8226 leukemia
SF-268 CNS = system: SF-268 CNS
SF-295 CNS = system: SF-295 CNS
SF-539 CNS = system: SF-539 CNS
SK-MEL-2 melanoma = system: SK-MEL-2 melanoma
SK-MEL-28 melanoma = system: SK-MEL-28 melanoma
SK-MEL-5 melanoma = system: SK-MEL-5 melanoma
SK-OV-3 ovarian = system: SK-OV-3 ovarian
SN12C renal = system: SN12C renal
SNB-19 CNS = system: SNB-19 CNS
SNB-75 CNS = system: SNB-75 CNS
SW-620 colon = system: SW-620 colon
T-47D breast = system: T-47D breast
TK-10 renal = system: TK-10 renal
U251 CNS = system: U251 CNS
UACC-257 melanoma = system: UACC-257 melanoma
UACC-62 melanoma = system: UACC-62 melanoma
UO-31 renal = system: UO-31 renal

Cc1ccc2[nH]cc(-c3nc(-c4c[nH]c5ncccc45)cs3)c2c1
GI50 (A498 renal): 3.11 µM
TGI (A498 renal): > 100 µM
GI50 (A549 NSCLC): > 100 µM
TGI (A549 NSCLC): > 100 µM
GI50 (ACHN renal): > 100 µM
TGI (ACHN renal): > 100 µM
GI50 (BT-549 breast): > 100 µM
TGI (BT-549 breast): > 100 µM
GI50 (CCRF-CEM leukemia): > 100 µM
TGI (CCRF-CEM leukemia): > 100 µM
GI50 (COLO 205 colon): 0.349 µM
TGI (COLO 205 colon): > 100 µM
GI50 (HCC-2998 colon): > 100 µM
TGI (HCC-2998 colon): > 100 µM
GI50 (HCT-116 colon): > 100 µM
TGI (HCT-116 colon): > 100 µM
GI50 (HCT-15 colon): > 100 µM
TGI (HCT-15 colon): > 100 µM
GI50 (HL-60(TB) leukemia): > 100 µM
TGI (HL-60(TB) leukemia): > 100 µM
GI50 (HOP-62 NSCLC): > 100 µM
TGI (HOP-62 NSCLC): > 100 µM
GI50 (HS 578T breast): > 100 µM
TGI (HS 578T breast): > 100 µM
GI50 (IGROV1 ovarian): > 100 µM
TGI (IGROV1 ovarian): > 100 µM
GI50 (KM12 colon): > 100 µM
TGI (KM12 colon): > 100 µM
GI50 (LOX IMVI melanoma): > 100 µM
TGI (LOX IMVI melanoma): > 100 µM
GI50 (M14 melanoma): > 100 µM
TGI (M14 melanoma): > 100 µM
GI50 (MCF7 breast): > 100 µM
TGI (MCF7 breast): > 100 µM
GI50 (MDA-MB-231 breast): > 100 µM
TGI (MDA-MB-231 breast): > 100 µM
GI50 (MDA-MB-435): > 100 µM
TGI (MDA-MB-435): > 100 µM
GI50 (MOLT-4 leukemia): > 100 µM
TGI (MOLT-4 leukemia): > 100 µM
GI50 (NCI-H226 lung): > 100 µM
TGI (NCI-H226 lung): > 100 µM
GI50 (NCI-H23 lung): > 100 µM
TGI (NCI-H23 lung): > 100 µM
GI50 (NCI-H522 lung): > 100 µM
TGI (NCI-H522 lung): > 100 µM
GI50 (NCI/ADR-RES ovarian): > 100 µM
TGI (NCI/ADR-RES ovarian): > 100 µM
GI50 (OVCAR-3 ovarian): > 100 µM
TGI (OVCAR-3 ovarian): > 100 µM
GI50 (OVCAR-4 ovarian): > 100 µM
TGI (OVCAR-4 ovarian): > 100 µM
GI50 (OVCAR-5 ovarian): > 100 µM
TGI (OVCAR-5 ovarian): > 100 µM
GI50 (OVCAR-8 ovarian): > 100 µM
TGI (OVCAR-8 ovarian): > 100 µM
GI50 (PC-3 prostate): > 100 µM
TGI (PC-3 prostate): > 100 µM
GI50 (RPMI-8226 leukemia): > 100 µM
TGI (RPMI-8226 leukemia): > 100 µM
GI50 (SF-268 CNS): > 100 µM
TGI (SF-268 CNS): > 100 µM
GI50 (SF-295 CNS): > 100 µM
TGI (SF-295 CNS): > 100 µM
GI50 (SF-539 CNS): > 100 µM
TGI (SF-539 CNS): > 100 µM
GI50 (SK-MEL-2 melanoma): > 100 µM
TGI (SK-MEL-2 melanoma): > 100 µM
GI50 (SK-MEL-28 melanoma): > 100 µM
TGI (SK-MEL-28 melanoma): > 100 µM
GI50 (SK-MEL-5 melanoma): > 100 µM
TGI (SK-MEL-5 melanoma): > 100 µM
GI50 (SK-OV-3 ovarian): > 100 µM
TGI (SK-OV-3 ovarian): > 100 µM
GI50 (SN12C renal): > 100 µM
TGI (SN12C renal): > 100 µM
GI50 (SNB-19 CNS): > 100 µM
TGI (SNB-19 CNS): > 100 µM
GI50 (SNB-75 CNS): > 100 µM
TGI (SNB-75 CNS): > 100 µM
GI50 (SW-620 colon): > 100 µM
TGI (SW-620 colon): > 100 µM
GI50 (T-47D breast): > 100 µM
TGI (T-47D breast): > 100 µM
GI50 (TK-10 renal): > 100 µM
TGI (TK-10 renal): > 100 µM
GI50 (U251 CNS): > 100 µM
TGI (U251 CNS): > 100 µM
GI50 (UACC-257 melanoma): > 100 µM
TGI (UACC-257 melanoma): > 100 µM
GI50 (UACC-62 melanoma): > 100 µM
TGI (UACC-62 melanoma): > 100 µM
GI50 (UO-31 renal): 0.244 µM
TGI (UO-31 renal): > 100 µM
